In test [1] the target is T1, human CRF2a receptor (Homo sapiens, UniProt Q13324).
T1 construct: expressed in transfected cells; host or cells: TeloHEAC cells
T1 sequence (Q13324 1-411): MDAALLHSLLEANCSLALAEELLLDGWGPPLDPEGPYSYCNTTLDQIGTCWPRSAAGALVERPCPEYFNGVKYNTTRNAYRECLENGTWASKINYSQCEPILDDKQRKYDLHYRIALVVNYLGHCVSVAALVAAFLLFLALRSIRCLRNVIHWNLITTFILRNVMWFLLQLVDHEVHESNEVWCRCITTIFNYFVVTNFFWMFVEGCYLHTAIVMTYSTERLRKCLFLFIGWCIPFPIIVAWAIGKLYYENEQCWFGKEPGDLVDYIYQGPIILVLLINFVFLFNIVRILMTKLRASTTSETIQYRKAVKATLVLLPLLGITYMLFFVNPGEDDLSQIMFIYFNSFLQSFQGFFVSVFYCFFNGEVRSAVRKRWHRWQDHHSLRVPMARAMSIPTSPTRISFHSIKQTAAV
The test can be described thus: Activity at human CRF2a receptor, cAMP functional assay in TeloHEAC cells. The test is classed as cell-based. Particulars: TeloHEAC cells stably expressing human CRF2a receptor, relative to urocortin 2 (100 nM = 100%). A digest of the protocol: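 TeloHEAC cells stably expressing human CRF2a (10000 cells/well) were treated with 16-point 1:2 compound dilutions in HBSS/20 mM HEPES with IBMX for 30 min at 37° C. cAMP was read by HTRF (665/620 nm ratio). EC50 was the concentration giving 50% activation, with 100 nM urocortin 2 set as 100%.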

Test [2] deals with T2, CFR1R receptor (Homo sapiens, UniProt P34998).
T2 construct: host or cells: CHO-K1 (clone 2)
T2 sequence (P34998 24-415): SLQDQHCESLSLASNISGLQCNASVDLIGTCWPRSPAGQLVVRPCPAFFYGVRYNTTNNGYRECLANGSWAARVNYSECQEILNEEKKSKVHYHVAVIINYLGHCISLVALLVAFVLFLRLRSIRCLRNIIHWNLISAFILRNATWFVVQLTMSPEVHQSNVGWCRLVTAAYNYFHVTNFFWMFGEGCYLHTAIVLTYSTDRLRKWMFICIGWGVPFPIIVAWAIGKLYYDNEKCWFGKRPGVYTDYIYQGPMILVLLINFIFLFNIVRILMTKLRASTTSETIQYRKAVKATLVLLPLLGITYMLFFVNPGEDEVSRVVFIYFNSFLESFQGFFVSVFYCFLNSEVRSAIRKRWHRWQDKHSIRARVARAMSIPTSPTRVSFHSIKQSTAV
Kind of test: Activity at anti-target CFR1R receptor, cAMP assay in CRF1R-overexpression CHO-K1 cells. Particulars: 100% = Sauvagine at 100 nM; for pEC50: cAMP. The test is classed as cell-based. A digest of the protocol:
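Clone 2; cryopreserved stocks (10% DMSO); 4000 cells/well final; 100% activation = Sauvagine 100 nM; otherwise as TeloHAEC protocol.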

pEC50: −log10 of the molar value. *1 amine or outer side, *2 acyl side, *3 side chain or, on linkers, in order; H or OH if unused. Where a SMILES comes first, the peptide text is derived from it. Side-chain parts run from the residue outwards. [ ]: non-standard residue; d: D form. The star is where a group is joined. C18 diacid = O=C(O)CCCCCCCCCCCCCCCCC(=O)*; γGlu = O=C(O)[C@H](CCC(=O)[*:2])N[*:1]; NMeI = CC[C@H](C)[C@H](NC)C(=O)O; αMeL = CC(C)C[C@](C)(N)C(=O)O; Api = NC1(C(=O)O)CCNCC1; Abu = CC[C@H](N)C(=O)O; AEEA = NCCOCCOCC(=O)O

`CC[C@H](C)[C@H](NC(C)=O)C(=O)N[C@H](C(=O)N[C@@H](CC(C)C)C(=O)N[C@@H](CO)C(=O)N[C@@H](CC(C)C)C(=O)N[C@@H](CC(=O)O)C(=O)N[C@@H](C(=O)N1CCC[C@H]1C(=O)N[C@H](C(=O)N[C@@H](CCCCN)C(=O)N[C@@H](CC(C)C)C(=O)N[C@@H](CCCCNC(=O)COCCOCCNC(=O)COCCOCCNC(=O)CC[C@H](NC(=O)CCCCCCCCCCCCCCCCC(=O)O)C(=O)O)C(=O)N[C@@H](CCCCN)C(=O)N[C@H](C(=O)N[C@@H](CC(C)C)C(=O)N[C@@H](CC(C)C)C(=O)N[C@@H](CCC(=O)O)C(=O)N[C@@H](CCC(N)=O)C(=O)N[C@@H](CCC(=O)O)C(=O)N[C@@H](CCCCN)C(=O)N[C@@H](CCC(N)=O)C(=O)N[C@@H](CCCCN)C(=O)N[C@@H](CCCCN)C(=O)N[C@@H](CCC(N)=O)C(=O)N[C@@H](CCCNC(=N)N)C(=O)N[C@@H](CCC(=O)O)C(=O)N[C@@H](CCC(N)=O)C(=O)N[C@@H](C)C(=O)N[C@@H](CCC(=O)O)C(=O)N[C@H](C(=O)N[C@@H](CC(N)=O)C(=O)N[C@@H](CCC(=O)O)C(=O)N[C@@H](CCC(N)=O)C(=O)N[C@H](C(=O)N[C@@H](CC(C)C)C(=O)N[C@@H](C)C(=O)N[C@@H](CCC(N)=O)C(=O)N[C@H](C(N)=O)C(C)C)[C@@H](C)CC)[C@@H](C)O)[C@@H](C)CC)[C@@H](C)CC)C(C)C)C(C)C` [compound 108] (Ac-IVLSLD[dV]PIKLK([AEEA-AEEA-γGlu-C18 diacid])KILLEQEKQKKQREQAETNEQILAQV-NH2) gave a pEC50 in test [1] of 8.94. In test [2], the “Emax (% I)” value worked out at 4 % I and the pEC50 was under 6.60.
The compound `CC[C@H](C)[C@H](NC(C)=O)C(=O)N[C@H](C(=O)N[C@@H](CC(C)C)C(=O)N[C@@H](CO)C(=O)N[C@@H](CC(C)C)C(=O)N[C@@H](CC(=O)O)C(=O)N[C@@H](C(=O)N1CCC[C@H]1C(=O)N[C@H](C(=O)N[C@@H](CCCCN)C(=O)N[C@@H](CC(C)C)C(=O)N[C@@H](CCCCNC(=O)COCCOCCNC(=O)COCCOCCNC(=O)CC[C@H](NC(=O)CCCCCCCCCCCCCCCCC(=O)O)C(=O)O)C(=O)N[C@@H](CCCCN)C(=O)N[C@H](C(=O)N[C@@H](CC(C)C)C(=O)N[C@@H](CC(C)C)C(=O)N[C@@H](CCC(=O)O)C(=O)N[C@@H](CCC(N)=O)C(=O)N[C@@H](CCC(=O)O)C(=O)N[C@@H](CCCCN)C(=O)N[C@@H](CCC(N)=O)C(=O)N[C@@H](CCCCN)C(=O)N[C@@H](CCCCN)C(=O)N[C@@H](CCC(N)=O)C(=O)N[C@@H](CCCNC(=N)N)C(=O)N[C@@H](CCC(=O)O)C(=O)N[C@@H](CCC(N)=O)C(=O)N[C@@H](C)C(=O)N[C@@H](CCC(=O)O)C(=O)N[C@H](C(=O)N[C@@H](CC(N)=O)C(=O)NC1(C(=O)N[C@@H](CCC(N)=O)C(=O)N[C@H](C(=O)N[C@@H](CC(C)C)C(=O)N[C@@H](C)C(=O)N[C@@H](CCC(N)=O)C(=O)N[C@H](C(N)=O)C(C)C)[C@@H](C)CC)CCNCC1)[C@@H](C)O)[C@@H](C)CC)[C@@H](C)CC)C(C)C)C(C)C` [compound 109] (Ac-IVLSLD[dV]PIKLK([AEEA-AEEA-γGlu-C18 diacid])KILLEQEKQKKQREQAETN[Api]QILAQV-NH2) gave a negative-log EC50 (pEC50) in test [1] of 9.00. Further, in test [2], the “Emax (% I)” value was 4 % I and the negative logarithm of the EC50 (pEC50) is under 6.60.
Turning to `CC[C@H](C)[C@H](NC(C)=O)C(=O)N[C@H](C(=O)N[C@@H](CC(C)C)C(=O)N[C@@H](CO)C(=O)N[C@@H](CC(C)C)C(=O)N[C@@H](CC(=O)O)C(=O)N[C@@H](C(=O)N1CCC[C@H]1C(=O)N[C@H](C(=O)N[C@@H](CCCCN)C(=O)N[C@@](C)(CC(C)C)C(=O)N[C@@H](CCCCNC(=O)COCCOCCNC(=O)COCCOCCNC(=O)CC[C@H](NC(=O)CCCCCCCCCCCCCCCCC(=O)O)C(=O)O)C(=O)N[C@@H](CCCCN)C(=O)N[C@H](C(=O)N[C@@H](CC(C)C)C(=O)N[C@@H](CC(C)C)C(=O)N[C@@H](CCC(=O)O)C(=O)N[C@@H](CCC(N)=O)C(=O)N[C@@H](CCC(=O)O)C(=O)N[C@@H](CCCCN)C(=O)N[C@@H](CCC(N)=O)C(=O)N[C@@H](CCCCN)C(=O)N[C@@H](CCCCN)C(=O)N[C@@H](CCC(N)=O)C(=O)N[C@@H](CCCNC(=N)N)C(=O)N[C@@H](CCC(=O)O)C(=O)N[C@@H](CCC(N)=O)C(=O)N[C@@H](C)C(=O)N[C@@H](CCC(=O)O)C(=O)N[C@H](C(=O)N[C@@H](CC(N)=O)C(=O)N[C@H](C(=O)N[C@@H](CCC(N)=O)C(=O)N[C@H](C(=O)N[C@@H](CC(C)C)C(=O)N[C@@H](C)C(=O)N[C@@H](CCC(N)=O)C(=O)N[C@H](C(N)=O)C(C)C)[C@@H](C)CC)C(C)C)[C@@H](C)O)[C@@H](C)CC)[C@@H](C)CC)C(C)C)C(C)C` [compound 111] (Ac-IVLSLD[dV]PIK[αMeL]K([AEEA-AEEA-γGlu-C18 diacid])KILLEQEKQKKQREQAETNVQILAQV-NH2), the pEC50 in test [1] is 8.59; in test [2], under 6.60. Further, the “Emax (% I)” value in test [2] is listed as −3 % I.
In the case of `CC[C@H](C)[C@H](NC(C)=O)C(=O)N[C@H](C(=O)N[C@@H](CC(C)C)C(=O)N[C@@H](CO)C(=O)N[C@@H](CC(C)C)C(=O)N[C@@H](CC(=O)O)C(=O)N[C@@H](C(=O)N1CCC[C@H]1C(=O)N[C@H](C(=O)N[C@@H](CCCCN)C(=O)N[C@@](C)(CC(C)C)C(=O)N[C@@H](CCCCNC(=O)COCCOCCNC(=O)COCCOCCNC(=O)CC[C@H](NC(=O)CCCCCCCCCCCCCCCCC(=O)O)C(=O)O)C(=O)N[C@@H](CCCCN)C(=O)N[C@H](C(=O)N[C@@H](CC(C)C)C(=O)N[C@@H](CC(C)C)C(=O)N[C@@H](CCC(=O)O)C(=O)N[C@@H](CCC(N)=O)C(=O)N[C@@H](CCC(=O)O)C(=O)N[C@@H](CCCCN)C(=O)N[C@@H](CCC(N)=O)C(=O)N[C@@H](CCCCN)C(=O)N[C@@H](CCCCN)C(=O)N[C@@H](CCC(N)=O)C(=O)N[C@@H](CCCNC(=N)N)C(=O)N[C@@H](CCC(=O)O)C(=O)N[C@@H](CCC(N)=O)C(=O)N[C@@H](C)C(=O)N[C@@H](CCC(=O)O)C(=O)N[C@H](C(=O)N[C@@H](CC(N)=O)C(=O)N[C@@H](C)C(=O)N[C@@H](CCC(N)=O)C(=O)N[C@H](C(=O)N[C@@H](CC(C)C)C(=O)N[C@@H](C)C(=O)N[C@@H](CCC(N)=O)C(=O)N[C@H](C(N)=O)C(C)C)[C@@H](C)CC)[C@@H](C)O)[C@@H](C)CC)[C@@H](C)CC)C(C)C)C(C)C` [compound 112] (Ac-IVLSLD[dV]PIK[αMeL]K([AEEA-AEEA-γGlu-C18 diacid])KILLEQEKQKKQREQAETNAQILAQV-NH2), the pEC50 in test [1] was 9.55. Also, in test [2], the “Emax (% I)” value is listed as 3 % I and the pEC50 is under 6.60.
In the case of `CC[C@H](NC(=O)[C@H](CC(N)=O)NC(=O)[C@@H](NC(=O)[C@H](CCC(=O)O)NC(=O)[C@H](C)NC(=O)[C@H](CCC(N)=O)NC(=O)[C@H](CCC(=O)O)NC(=O)[C@H](CCCNC(=N)N)NC(=O)[C@H](CCC(N)=O)NC(=O)[C@H](CCCCN)NC(=O)[C@H](CCCCN)NC(=O)[C@H](CCC(N)=O)NC(=O)[C@H](CCCCN)NC(=O)[C@H](CCC(=O)O)NC(=O)[C@H](CCC(N)=O)NC(=O)[C@H](CCC(=O)O)NC(=O)[C@H](CC(C)C)NC(=O)[C@H](CC(C)C)NC(=O)[C@@H](NC(=O)[C@H](CCCCN)NC(=O)[C@H](CCCCNC(=O)COCCOCCNC(=O)COCCOCCNC(=O)CC[C@H](NC(=O)CCCCCCCCCCCCCCCCC(=O)O)C(=O)O)NC(=O)[C@H](CC(C)C)NC(=O)[C@H](CCCCN)NC(=O)[C@@H](NC(=O)[C@@H]1CCCN1C(=O)[C@H](NC(=O)[C@H](CC(=O)O)NC(=O)[C@H](CC(C)C)NC(=O)[C@H](CO)NC(=O)[C@H](CC(C)C)NC(=O)[C@@H](NC(=O)[C@@H](NC)[C@@H](C)CC)C(C)C)C(C)C)[C@@H](C)CC)[C@@H](C)CC)[C@@H](C)O)C(=O)N[C@@H](CCC(N)=O)C(=O)N[C@H](C(=O)N[C@@H](CC(C)C)C(=O)N[C@@H](C)C(=O)N[C@@H](CCC(N)=O)C(=O)N[C@H](C(N)=O)C(C)C)[C@@H](C)CC` [compound 114] (H-[NMeI]VLSLD[dV]PIKLK([AEEA-AEEA-γGlu-C18 diacid])KILLEQEKQKKQREQAETN[Abu]QILAQV-NH2), the values for the pEC50 in test [1] and in test [2] were 9.74 and under 6.60, respectively. Besides, the “Emax (% I)” value in test [2] came out at 6 % I.

Values taken from patent publication US20260001928A1 (CORTERIA PHARMACEUTICALS, priority 2022, published 2026).
